According to PMC7892475, “C-Terminal Amination of a Cationic Anti-Inflammatory Peptide Improves Bioavailability and Inhibitory Activity Against LPS-Induced Inflammation” (Frontiers in Immunology, 2021):

Tests used:
[1] = Reverse-phase HPLC retention time as measure of peptide hydrophobicity; format: physicochemical; conditions: HPLC on reverse-phase matrix, aqueous solution; used by the paper as measure of hydrophobicity
Text: The retention time of peptides on a reverse-phase matrix has been reported to be related to peptide hydrophobicity ([34]).

TLR4/MD-2 complex = assay: Surface plasmon resonance binding; conditions: SPR, Biacore X100, PBS with 0.05% Tween 20, 30 μl/min, 1:1 model, 0 to 10 μM
Procedure: SPR assays were performed using a Biacore X100 instrument (GE Healthcare, Pittsburgh, PA, USA). PBS containing 0.05% Tween 20 was used as the running buffer. The running buffer was continuously passed into the reaction chamber at 30 μl/min. Immobilization of CTP-NH2 on the chip surface was performed according to an amino coupling protocol. […] Running buffer was injected into the empty channel as a reference. To regenerate the chip surface at the end of each experiment, 10 mM Gly-HCl buffer (pH 2.5) was injected. ProteOn manager software (version 2.0) was used to analyze the experimental data. The binding curves were processed for the start injection alignment and baseline. A reference-subtracted sensorgram was then fitted to the curves describing a homogeneous 1:1 model. Data from the protein surfaces were grouped together to fit the association kinetic rate constant (Ka) and the dissociation rate constant (Kd). The equilibrium dissociation constant (KD) for the peptide-TLR4/MD-2 interaction was calculated as follows: […]

RAW264.7 cells = assay: CCK-8 cell viability assay; format: cell-based, mouse; conditions: RAW264.7 macrophages, CCK-8, 0 to 80 μg/ml, 24 h or 72 h, 37°C
Procedure: The viability of peptide-treated RAW264.7 cells was determined using a Cell Counting Kit-8 (CCK-8) Assay Kit (Dojindo) ([35]). RAW264.7 cells were plated in 96-well plates at a density of 3×10^4 cells/ml in 100 μl DMEM overnight. The cell culture medium was then supplemented with fresh medium containing candidate peptides in a series of concentrations, and the plates were incubated for another 24 h or 72 h. Each well was incubated with 10 μl CCK-8 solution for 4 h in the dark. Afterwards, the absorbance at 450 nm was measured using a microplate reader. Cell viability was determined by:
Cell viability (%)=(OD450sample/OD450(control))×100%

[2] = LPS neutralization, chromogenic end-point Tachypleus Amebocyte Lysate (TAL) assay; format: binding, E. coli; conditions: chromogenic TAL assay, LPS 1.0 U/ml, 0 to 64 μg/ml peptide
Procedure: The neutralization of LPS by the peptides was assessed through a quantitative Chromogenic End-point Tachypleus Amebocyte Lysate (CE TAL) assay using a QCL-1000 kit (XIAMEN BIOENDO TECHNOLOGY CO., China). LPS (E. coli, O111:B4, Sigma-Aldrich, USA) at a final concentration of 1.0 U/ml was incubated with various concentrations of the peptides (0 to 64 μg/ml final concentration) at 37°C for 15 min. Afterwards, the mixtures were incubated with TAL assay reagent at 37°C; for 6 min, and the absorbance was measured at 540 nm.

Substance: RWGRFLRKIRRFRRKDVT-NH2 [CTP-NH2, C-terminal amidated derivative peptide of CTP]
- Retention time [1]: 11.96 min
- Ka (association kinetic rate constant) (TLR4/MD-2 complex): 1.65e+07 M⁻¹ s⁻¹
- cytotoxicity (comparison in words) (RAW264.7 cells): less cytotoxicity than CTP
- LPS neutralization activity [2]: stronger than that of CTP
